Data on 14 compounds can be found in patent US20140005163A1 (NOVARTIS AG, priority 2010, published 2014).

Each structure is given as a SMILES string. Values after ≈ are worked out from the molar mass of the structure shown.

A short description of one data set: Solubility at pH 6.8. Type of data set: physicochemical. Particulars: pH 6.8, aqueous buffer, thermodynamic from solid; read-out: solubility. The gist of the method:
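Following the procedure of Zhou et al. (2007), compound solubility was determined at pH 6.8.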

The target in another data set is T1, mTOR (Homo sapiens, UniProt P42345).
T1 construct: purchased Invitrogen Corporation (Carlsbad/CA, USA) PV4753
T1 sequence (P42345 1360-2549 limits assumed): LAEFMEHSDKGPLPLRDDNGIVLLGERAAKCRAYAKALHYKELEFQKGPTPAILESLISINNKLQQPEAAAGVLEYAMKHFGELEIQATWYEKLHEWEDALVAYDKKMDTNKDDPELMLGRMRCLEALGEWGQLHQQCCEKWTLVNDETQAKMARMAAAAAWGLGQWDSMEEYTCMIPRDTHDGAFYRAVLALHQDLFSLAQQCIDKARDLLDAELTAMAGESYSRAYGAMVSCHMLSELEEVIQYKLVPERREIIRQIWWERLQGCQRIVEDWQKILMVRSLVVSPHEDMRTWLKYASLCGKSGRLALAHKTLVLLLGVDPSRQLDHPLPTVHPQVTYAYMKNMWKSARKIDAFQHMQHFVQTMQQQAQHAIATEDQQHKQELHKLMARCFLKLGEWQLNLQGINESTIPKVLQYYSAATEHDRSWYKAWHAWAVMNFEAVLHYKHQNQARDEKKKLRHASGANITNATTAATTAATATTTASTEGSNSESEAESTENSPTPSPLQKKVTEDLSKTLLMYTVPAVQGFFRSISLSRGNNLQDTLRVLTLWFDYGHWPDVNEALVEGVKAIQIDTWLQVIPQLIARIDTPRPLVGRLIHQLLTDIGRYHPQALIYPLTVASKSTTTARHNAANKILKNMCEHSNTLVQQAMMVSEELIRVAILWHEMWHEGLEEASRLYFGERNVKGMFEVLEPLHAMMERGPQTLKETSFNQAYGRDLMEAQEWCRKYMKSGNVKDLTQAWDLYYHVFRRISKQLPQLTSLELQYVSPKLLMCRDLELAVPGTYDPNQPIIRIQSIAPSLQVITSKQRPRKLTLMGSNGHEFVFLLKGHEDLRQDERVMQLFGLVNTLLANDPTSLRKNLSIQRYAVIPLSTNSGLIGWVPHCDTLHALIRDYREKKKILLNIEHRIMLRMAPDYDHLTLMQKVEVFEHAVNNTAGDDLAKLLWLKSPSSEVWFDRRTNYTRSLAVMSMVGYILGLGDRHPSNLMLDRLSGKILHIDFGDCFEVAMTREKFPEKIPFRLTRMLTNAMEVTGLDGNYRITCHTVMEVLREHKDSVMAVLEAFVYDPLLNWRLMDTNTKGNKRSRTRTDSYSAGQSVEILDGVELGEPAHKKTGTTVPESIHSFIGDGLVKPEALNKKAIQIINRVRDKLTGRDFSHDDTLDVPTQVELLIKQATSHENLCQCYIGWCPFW
Nature of the data set: Biochemical assay for m-TOR by TR-FRET. Particulars: 8 μM ATP, 400 nM GFP-4EBP1, 0.5 nM mTOR. The gist of the method:
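TR-FRET detection of pThr46 on GFP-4EBP1 (400 nM final) using Tb3+-labelled antibody (0.5 nM), added with EDTA to stop reactions. Reactions ran at rt with 0.5 nM mTOR and 8 μM ATP (final) in HEPES pH 7.5 buffer containing 10 mM MnCl2.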
For orientation: Time-resolved FRET reads energy transfer from a long-lived donor to a nearby acceptor.

Data set [1] deals with PKB Ser473 phosphorylation in Rat1-myr-HA-p110 alpha cells. Nature of the data set: Reverse protein array assay, PKB Ser473 phosphorylation in Rat1-myr-p110 alpha cells. Particulars: 0.5 h, pAkt Ser473, 30 minutes compound incubation, read-out: p-PKB IC50. Format: cell-based. The gist of the method:
(§1)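 Rat1 cells expressing myristoylated HA-tagged p110 alpha, beta or delta were plated for at least 20 h, then exposed to 8-step serial compound dilutions (0.2% DMSO final) for 30 min at 37 °C. Lysates were spotted at four dilutions on protein microarrays, and relative fluorescence intensity of phospho-Ser473 PKB was calculated.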

In data set [2] the test system is PKB Ser473 phosphorylation in Rat1-myr-HA-p110 beta cells. Nature of the data set: Reverse protein array assay, PKB Ser473 phosphorylation in Rat1-myr-p110 beta cells. Type of data set: cell-based. Particulars: 0.5 h, pAkt Ser473, 30 minutes incubation, read-out: p-PKB IC50. The gist of the method: as §1
Data set [3] concerns PKB Ser473 phosphorylation in Rat1-myr-HA-p110 delta cells. Nature of the data set: Reverse protein array assay, PKB Ser473 phosphorylation in Rat1-myr-p110 delta cells. Particulars: read-out: p-PKB IC50. Format: cell-based. The gist of the method: as §1
In data set [4] the test system is S6 Ribosomal Protein phosphorylation Ser235/236 in TSC1 null mouse embryo fibroblast (MEF) cells. Nature of the data set: Reverse protein array assay, S6 Ribosomal Protein phosphorylation Ser235/236 in TSC1 null MEF cells. Particulars: 1 h, pS6 ribosomal protein Ser235/236, 60 minutes incubation, read-out: p-S6 IC50. Type of data set: cell-based. The gist of the method: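 TSC1−/− MEFs, seeded and held ≥20 h at 37 °C/5% CO2, were exposed to 8-step serial compound dilutions (0.02% DMSO final; DMSO vehicle control) for 60 min at 37 °C. Cells were then lysed on ice for 10 min and lysates spotted onto reverse protein array chips.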

Regarding `CCNc1cc(-c2ccc3ncc4c(c3c2)n(-c2cn(CC)nc2C)c(=O)n4C)cnc1COC` [Example 157, 8-(5-Ethylamino-6-methoxymethyl-pyridin-3-yl)-1-(1-ethyl-3-methyl-1H-pyrazol-4-yl)-3-methyl-1,3-dihydro-imidazo[4,5-c]quinolin-2-one], the solubility in the data set “Solubility at pH 6.8” was greater than 0.472 mg/mL. Further, the IC50 on mTOR was 0.01 µM; in data set [1] it was less than 0.005 µM; in data set [2], 0.008 µM; in data set [3] it was 0.012 µM; in data set [4], 0.001 µM.
Regarding `CCOc1ccc(-c2ccc3ncc4c(c3c2)n(-c2cn(CC(=O)N(C)CC)nc2C)c(=O)n4C)cn1` [Example 136, 2-{4-[8-(6-Ethoxy-pyridin-3-yl)-3-methyl-2-oxo-2,3-dihydro-imidazo[4,5-c]quinolin-1-yl]-3-methyl-pyrazol-1-yl}-N-ethyl-N-methyl-acetamide], the solubility in the data set “Solubility at pH 6.8” worked out at 0.141 mg/mL (≈ 282 µM). Moreover, the IC50 at mTOR was 0.009 µM; in data set [1], 0.011 µM; in data set [2], 0.016 µM; in data set [3], 0.066 µM; in data set [4], 0.003 µM.
For the compound `Cc1nn(C)cc1-n1c(=O)n(C)c2cnc3ccc(-c4cncc(OC(F)F)c4)cc3c21` [Example 183, 8-(5-Difluoromethoxy-pyridin-3-yl)-1-(1,3-dimethyl-1H-pyrazol-4-yl)-3-methyl-1,3-dihydro-imidazo[4,5-c]quinolin-2-one], in the data set “Solubility at pH 6.8”, the solubility is 0.084 mg/mL (≈ 192 µM). Also, the IC50 was less than 0.003 µM at mTOR; 0.023 µM in data set [1]; 0.052 µM in data set [2]; 0.051 µM in data set [3]; 0.001 µM in data set [4].
Consider `CCn1c(=O)n(-c2cn(C)nc2C)c2c3nc(-c4ccc(OC)c(OC)c4)ccc3ncc21` [Example 251, 8-(3,4-Dimethoxy-phenyl)-1-(1,3-dimethyl-1H-pyrazol-4-yl)-3-ethyl-1,3-dihydro-1,3,5,9-tetraaza-cyclopenta[a]naphthalen-2-one], for which the solubility in the data set “Solubility at pH 6.8” stood at 0.012 mg/mL (≈ 27 µM). Moreover, the 50% inhibitory concentration (IC50) on mTOR amounted to 0.105 µM; in data set [1], 0.032 µM; in data set [2], 0.064 µM; in data set [3], 0.14 µM; in data set [4], 0.033 µM.
Regarding `Cc1nn(C)cc1-n1c(=O)[nH]c2cnc3ccc(-c4cnc(N(C)C)nc4)cc3c21` [Example 207, 8-(2-Dimethylamino-pyrimidin-5-yl)-1-(1,3-dimethyl-1H-pyrazol-4-yl)-1,3-dihydro-imidazo[4,5-c]quinolin-2-one], in “Solubility at pH 6.8”, the solubility came out at 0.018 mg/mL (≈ 44.9 µM). Moreover, the half-maximal inhibitory concentration (IC50) is 0.011 µM at mTOR; 0.065 µM in data set [1]; 0.063 µM in data set [2]; 0.238 µM in data set [3]; 0.022 µM in data set [4].
Consider `CCOc1ccc(-c2ccc3ncc4c(c3c2)n(-c2c(C)nn(CC(=O)N(C)C)c2C)c(=O)n4C)cn1` [Example 3.12, 2-{4-[8-(6-Ethoxy-pyridin-3-yl)-3-methyl-2-oxo-2,3-dihydro-imidazo[4,5-c]quinolin-1-yl]-3,5-dimethyl-pyrazol-1-yl}-N,N-dimethyl-acetamide], for which the solubility in “Solubility at pH 6.8” was greater than 0.5 mg/mL. Moreover, the IC50 at mTOR was 0.548 µM; in data set [1] it was 0.128 µM; in data set [2], 0.166 µM; in data set [3], 0.211 µM; in data set [4] it was 0.175 µM.
Regarding `COc1cc(-c2ccc3ncc4c(c3c2)n(-c2cn(C)nc2C)c(=O)n4C)cnc1C` [Example 184, 1-(1,3-Dimethyl-1H-pyrazol-4-yl)-8-(5-methoxy-6-methyl-pyridin-3-yl)-3-methyl-1,3-dihydro-imidazo[4,5-c]quinolin-2-one], the solubility in the data set “Solubility at pH 6.8” is 0.008 mg/mL (≈ 19.3 µM). Besides, the IC50 on mTOR is 0.006 µM; in data set [1], 0.005 µM; in data set [2], 0.016 µM; in data set [3], 0.016 µM; in data set [4], 0.005 µM.
As to `COCCOc1cc(-c2ccc3ncc4c(c3c2)n(-c2cn(C)nc2C)c(=O)n4C)cnc1CO` [Example 244, 1-(1,3-Dimethyl-1H-pyrazol-4-yl)-8-[6-hydroxymethyl-5-(2-methoxy-ethoxy)-pyridin-3-yl]-3-methyl-1,3-dihydro-imidazo[4,5-c]quinolin-2-one], in the data set “Solubility at pH 6.8”, the solubility is 0.092 mg/mL (≈ 194 µM). Moreover, the IC50 at mTOR is 0.079 µM; in data set [1] it was 0.115 µM; in data set [2], 0.386 µM; in data set [3], 0.347 µM; in data set [4], 0.025 µM.
`Cc1ncc(-c2ccc3ncc4c(c3c2)n(-c2cn(C)nc2Cl)c(=O)n4C)cc1N` [Example 88.1, 8-(5-Amino-6-methyl-pyridin-3-yl)-1-(3-chloro-1-methyl-1H-pyrazol-4-yl)-3-methyl-1,3-dihydro-imidazo[4,5-c]quinolin-2-one]: in the data set “Solubility at pH 6.8”, the solubility worked out at 0.003 mg/mL (≈ 7.14 µM). The IC50 was 0.008 µM at mTOR; less than 0.005 µM in data set [1]; 0.008 µM in data set [2]; 0.015 µM in data set [3]; 0.002 µM in data set [4].
Consider `Cc1nn(C(C)C)cc1-n1c(=O)n(C)c2cnc3ccc(-c4ccc(CO)nc4)cc3c21` [Example 16.3, 8-(6-hydroxymethyl-pyridin-3-yl)-1-(1-isopropyl-3-methyl-1H-pyrazol-4-yl)-3-methyl-1,3-dihydro-imidazo[4,5-c]quinolin-2-one], for which, in the data set “Solubility at pH 6.8”, the solubility is greater than 0.428 mg/mL. Also, the IC50 at mTOR came to 0.045 µM; in data set [1], 0.067 µM; in data set [2], 0.039 µM; in data set [3], 0.125 µM; in data set [4], 0.061 µM.
Consider `CNc1ncc(-c2ccc3ncc4c(c3c2)n(-c2cn(C)nc2C)c(=O)n4C)cc1Cl` [Example 146.1, 8-(5-Chloro-6-methylamino-pyridin-3-yl)-1-(1,3-dimethyl-1H-pyrazol-4-yl)-3-methyl-1,3-dihydro-imidazo[4,5-c]quinolin-2-one], for which the solubility in the data set “Solubility at pH 6.8” is greater than 0.434 mg/mL. Besides, the IC50 at mTOR is less than 0.003 µM; in data set [1] it was less than 0.005 µM; in data set [2], 0.009 µM; in data set [3] it was 0.024 µM; in data set [4] it was less than 0.0005 µM.
Consider `CCOc1cc(-c2ccc3ncc4c(c3c2)n(-c2cn(C)nc2C)c(=O)n4C)cnc1CO` [Example 243, 1-(1,3-Dimethyl-1H-pyrazol-4-yl)-8-(5-ethoxy-6-hydroxymethyl-pyridin-3-yl)-3-methyl-1,3-dihydro-imidazo[4,5-c]quinolin-2-one], for which the solubility in the data set “Solubility at pH 6.8” amounted to 0.043 mg/mL (≈ 96.7 µM). In addition, the IC50 on mTOR stood at 0.031 µM; in data set [1], 0.036 µM; in data set [2], 0.045 µM; in data set [3] it was 0.091 µM; in data set [4] it was 0.004 µM.
Take `CCNc1cc(-c2ccc3ncc4c(c3c2)n(-c2c(C)nn(CCO)c2C)c(=O)n4C)cnc1C` [Example 210, 8-(5-Ethylamino-6-methyl-pyridin-3-yl)-1-[1-(2-hydroxy-ethyl)-3,5-dimethyl-1H-pyrazol-4-yl]-3-methyl-1,3-dihydro-imidazo[4,5-c]quinolin-2-one]: the solubility in the data set “Solubility at pH 6.8” amounted to 0.445 mg/mL (≈ 944 µM). In addition, the IC50 worked out at 0.04 µM on mTOR; 0.057 µM in data set [1]; 0.022 µM in data set [2]; 0.053 µM in data set [3]; 0.032 µM in data set [4].
On to `CCOc1ccc(-c2ccc3ncc4c(c3c2)n(-c2cn(C)nc2C)c(=O)n4C)cn1` [Example 3.1, 1-(1,3-Dimethyl-1H-pyrazol-4-yl)-8-(6-ethoxy-pyridin-3-yl)-3-methyl-1,3-dihydro-imidazo[4,5-c]quinolin-2-one], for which the solubility in the data set “Solubility at pH 6.8” is 0.015 mg/mL (≈ 36.2 µM). In addition, the half-inhibitory concentration (IC50) was 0.011 µM on mTOR; 0.024 µM in data set [1]; 0.02 µM in data set [2]; 0.042 µM in data set [3]; 0.04 µM in data set [4].

As usually defined, the solubility is the concentration that dissolves in the medium under given conditions. Usually IC50 stands for the concentration needed to halve the response being measured.
